Experimental data as given in paper PMC9038752, “Molecular mechanisms of bifunctional vitamin D receptor agonist-histone deacetylase inhibitor hybrid molecules in triple-negative breast cancer” (Scientific Reports, 2022).

Legend:
[1] = molecular target: T1, purified HDAC6 (Homo sapiens, UniProt Q9UBN7); assay: Fluorogenic HDAC inhibition assay, HDAC6; format: biochemical; conditions: purified HDAC6, fluorometric substrate
T1 construct: purchased Cayman Chemical
T1 sequence (Q9UBN7 1-1215): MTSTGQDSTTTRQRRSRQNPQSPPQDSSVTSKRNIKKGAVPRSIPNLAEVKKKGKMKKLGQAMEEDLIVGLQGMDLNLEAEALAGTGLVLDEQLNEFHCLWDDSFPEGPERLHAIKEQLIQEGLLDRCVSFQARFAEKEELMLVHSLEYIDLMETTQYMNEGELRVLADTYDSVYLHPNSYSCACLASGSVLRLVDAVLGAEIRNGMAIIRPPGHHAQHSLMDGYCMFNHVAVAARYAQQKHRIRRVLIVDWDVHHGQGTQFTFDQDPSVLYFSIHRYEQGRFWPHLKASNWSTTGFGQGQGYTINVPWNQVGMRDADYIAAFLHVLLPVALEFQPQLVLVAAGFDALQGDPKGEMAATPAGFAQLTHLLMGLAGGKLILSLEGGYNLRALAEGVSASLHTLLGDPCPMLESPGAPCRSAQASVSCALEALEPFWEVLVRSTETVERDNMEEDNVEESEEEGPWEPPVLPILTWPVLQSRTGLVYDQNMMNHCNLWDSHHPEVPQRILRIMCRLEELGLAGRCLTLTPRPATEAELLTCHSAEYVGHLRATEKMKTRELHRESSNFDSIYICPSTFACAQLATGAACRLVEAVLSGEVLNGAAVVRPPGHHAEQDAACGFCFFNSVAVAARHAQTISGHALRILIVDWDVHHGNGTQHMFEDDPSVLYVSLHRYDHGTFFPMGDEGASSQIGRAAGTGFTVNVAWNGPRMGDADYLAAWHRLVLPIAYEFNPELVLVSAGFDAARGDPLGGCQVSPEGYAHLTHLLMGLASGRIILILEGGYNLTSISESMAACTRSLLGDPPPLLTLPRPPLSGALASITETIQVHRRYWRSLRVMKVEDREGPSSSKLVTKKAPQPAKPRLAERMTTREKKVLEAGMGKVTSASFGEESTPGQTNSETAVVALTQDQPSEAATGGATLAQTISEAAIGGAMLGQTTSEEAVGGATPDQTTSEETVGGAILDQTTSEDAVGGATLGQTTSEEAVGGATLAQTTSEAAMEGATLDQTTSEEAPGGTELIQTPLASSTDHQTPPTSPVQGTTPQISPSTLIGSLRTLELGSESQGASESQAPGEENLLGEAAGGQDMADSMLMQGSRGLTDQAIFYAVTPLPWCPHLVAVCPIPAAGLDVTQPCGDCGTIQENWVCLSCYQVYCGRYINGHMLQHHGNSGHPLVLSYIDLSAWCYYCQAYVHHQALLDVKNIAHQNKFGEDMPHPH
Method: (§1) The hybrids were assessed to determine their HDACi and VDR agonist activity as well as their antiproliferative properties relative to DK-406. HDACi activity was assessed in vitro using an acetylated lysine substrate that releases a fluorescent reporter upon HDACi deacetylation and subsequent trypsin digestion. Increasing sidechain length of pyrimidine hybrids enhanced the potency of HDAC6 inhibition, with several compounds inhibiting HDAC6 with a sub-micromolar IC50, similar to that of DK-406 (Fig. 4a). […] Next, we analyzed the effects of compounds on levels of H3K9 and H3K27 acetylation in 4TO7 cells, which are controlled by class I HDACs[29],[30]. […] We also tested the capacity of analogues to induce tubulin acetylation, controlled by class II enzyme HDAC6[32], in 4TO7 cells. Based on their relative efficacy in cytotoxicity assays (see below, Fig. 5c,d), we used 10^–5 M DK-406 and 10^–6 M AM-193 for these studies.
(§2) Figure 4 (a) Results of in vitro assays for inhibition of purified HDAC2 and HDAC6 by DK-406 and heterocyclic hybrids as measured by inhibition of deacetylation of a fluorometric substrate (see Methods for details). (b–d) Left: Western blotting analysis of histone 3 lysine 9 (H3K9; b), H3K27 (c), or acetylated tubulin (d), levels in 4TO7 cells treated with ligands for 6 h. Representative western-blots are shown from at least 3 biological replicates. Right: Graphs representing the average of the replicates, bars are mean ± SD. Each condition was compared to control. *: p ≤ 0.05, **: p ≤ 0.01, ***: p ≤ 0.001, ****: p ≤ 0.0001, ns: not significant. TEXT PRINTED IN THE PICTURE: (a) DK-406: HDAC6 IC50 (μM): 0.6; HDAC2 IC50 (μM): 0.5 | (a) AM-155: HDAC6 IC50 (μM): 2.8; HDAC2 IC50 (μM): 1.7 | (a) AM-171: HDAC6 IC50 (μM): 0.5; HDAC2 IC50 (μM): 9.6 | (a) AM-172: HDAC6 IC50 (μM): 0.3; HDAC2 IC50 (μM): 7.7 | (a) AM-191: HDAC6 IC50 (μM): 1.9; HDAC2 IC50 (μM): 8.1 | (a) AM-192: HDAC6 IC50 (μM): 0.5; HDAC2 IC50 (μM): 6.5 | (a) AM-193: HDAC6 IC50 (μM): 0.3; HDAC2 IC50 (μM): 7.2
(§3) Purified HDAC2 and HDAC6 were purchased from Cayman Chemical. Boc-Lys(Ac)-7-amino-4-methylcoumarin (BocLys(Ac)-AMC) was used as substrate for the HDAC assays. Substrate solution was prepared as follow: Boc(Lys-Ac)-AMC was dissolved in DMSO and diluted with HDAC buffer (15 mM tris–HCl [pH 8.1], 250 μM EDTA, 250 mM NaCl, 10% glycerol) to give 1 mM solutions containing 1.7% DMSO. Trypsin was used to stop the reaction, releasing free AMC. The trypsin solution was prepared as follow: trypsin was dissolved in HDAC buffer to give a concentration of 10 mg/mL. Release of AMC was monitored by measuring the fluorescence at 460 nm (lex = 390 nm) with a microplate reader (SpectraMax Gemini from Molecular Devices) at 37 °C. The AMC signals were recorded against a blank with buffer, substrate and trypsin but without the enzyme. All experiments were carried out at least in triplicate.
(§4) For HDAC inhibition assays, inhibitor diluted in 50 μL of HDAC buffer was mixed with 10 μL of diluted enzyme solution in HDAC buffer at room temperature. The HDAC reaction was started by adding 40 μL of substrate solution in HDAC buffer followed by 60 min of incubation with stirring at 37 °C. The reaction was stopped by adding 100 μL of trypsin solution. After a 30 min incubation with stirring at 37 °C, the release of AMC was monitored by measuring the fluorescence.

[2] = molecular target: T2, purified HDAC2 (Homo sapiens, UniProt Q92769); assay: Fluorogenic HDAC inhibition assay, HDAC2; format: biochemical; conditions: purified HDAC2, fluorometric substrate
T2 construct: purchased Cayman Chemical
Method: as §1, §2, §3, §4

T2 sequence (Q92769 whole entry): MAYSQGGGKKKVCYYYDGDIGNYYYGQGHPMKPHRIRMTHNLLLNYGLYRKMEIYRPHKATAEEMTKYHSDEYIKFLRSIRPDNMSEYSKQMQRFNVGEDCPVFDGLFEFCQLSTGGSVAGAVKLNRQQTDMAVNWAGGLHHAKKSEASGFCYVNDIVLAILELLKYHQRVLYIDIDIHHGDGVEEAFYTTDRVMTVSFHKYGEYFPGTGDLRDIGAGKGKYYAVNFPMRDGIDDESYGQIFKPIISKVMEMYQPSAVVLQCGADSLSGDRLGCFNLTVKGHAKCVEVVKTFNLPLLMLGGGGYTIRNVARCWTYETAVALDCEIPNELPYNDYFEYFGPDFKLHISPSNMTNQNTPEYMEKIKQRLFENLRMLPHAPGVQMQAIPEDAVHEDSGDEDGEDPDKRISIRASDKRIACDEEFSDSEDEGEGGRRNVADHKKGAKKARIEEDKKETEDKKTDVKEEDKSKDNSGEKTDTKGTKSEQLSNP

IC50 [1] [nM] | IC50 [2] [nM] | SMILES
300 | 7200 | CCC(CC)(c1ccc(OCCCCCC(=O)NO)cc1)c1ccc(OCC(O)C(C)(C)C)c(C)n1 (centres unmarked) [AM-193]
600 | 500 | CCC(CC)(c1ccc(C(=O)NCCCCCC(=O)NO)cc1)c1ccc(OCC(O)C(C)(C)C)c(C)c1 (centres unmarked) [DK-406]
500 | 9600 | CCC(CC)(c1ccc(OCC(O)C(C)(C)C)c(C)c1)c1ccc(OCCCC(=O)NO)cn1 (centres unmarked) [AM-171]
2800 | 1700 | CCC(CC)(c1ccc(OCC(O)C(C)(C)C)c(C)c1)c1ccc(OCC(=O)NO)cn1 (centres unmarked) [AM-155]
